Earlier results on one compound are cited in patent US5948931A (priority 1997, dated 1999).

The conditions of the data set: pH 10, 27° C.; known to those skilled in the art; cited from earlier work.

Structures are written as SMILES.

As for `O=C(CP(=O)(O)O)Oc1ccc([N+](=O)[O-])cc1` [p-nitrophenyl phosphonoacetate], the “hydrolysis vs. p-nitrophenyl acetate (times slower)” value was 250 ×.
